The values below come from patent publication US20150266920A1, “MACROCYCLIC KETOAMIDE IMMUNOPROTEASOME INHIBITORS” (HOFF-MANN-LA ROCHE INC., priority 2012, published 2015).

Each structure is given as a SMILES string.

One test deals with IP 10 level. Nature of the test: PBMC IP-10 Assay. Type of test: cell-based. As to conditions: Homo sapiens, PBMCs stimulated with CpG Type A, assay not named in the column head. As to the method: PBMCs were isolated from whole blood as follows: Blood was collected in a sterile environment in heparinized tubes. Blood was diluted with an equal volume PBS/2% FCS and 30 ml of this mixture was added to ACCUSPIN tubes containing 15 ml Histopaque-1077 already centrifuged at 800 g for 30 seconds and warmed up at room temperature. The tubes were then centrifuged at 800 g for 20 minutes at room temperature with no brake. The mononuclear band, just above the polyethylene frit, was removed by Pasteur pipet. These mononuclear cells were washed three times with sterile PBS, counted, and resuspended in RPMI 1640 supplemented with 10% heat inactivated fetal calf serum, 10 mM HEPES, 1 mM sodium pyruvate, penicillin (50 U/ml), streptomycin (50 μg/ml) and glutamine (2 mM) to approximately 1.5×10^6/ml. […] PBMC viability of cells remaining in the well was measured with ATPlite luminescence assay (Perkin-Elmer) per the manufacturer's instructions. Luminescence was measured on the Perkin-Elmer Envision, using the luminescence filter. IP 10 level was measured with CXCL10/IP10 AlphaLISA kit (Perkin-Elmer) per the manufacturer's instructions, except halving all volumes. Fluorescence was measured on the Envision Multilabel plate reader, using the AlphaScreen standard settings.

A further test concerns the target T1, β 1i (Homo sapiens, UniProt P28065+P40306).
T1 construct: protease activity associated with the proteasome complex in cultured cells; endogenous in cells; host or cells: Ramos cells
Nature of the test: Cell-Based Proteasome Activity/Selectivity Assay, Ramos cells, substrate (PAL)2Rh110. To be noted: β1i substrate (PAL)2Rh110. An excerpt:
(§1) Cell-Based Proteasome Activity/Selectivity Assay
(§2) The Cell-Based Proteasome subunit activity/selectivity assay was a panel of 5 fluorogenic assays that independently measured the activity of β5c or β 5i (chymotrypsin-like activity), β2c/2i (trypsin-like), and β 1c or β 1i (caspase-like) protease activity associated with the proteasome complex in cultured cells. Specifically, the following substrates were used for respective subunit activities: β 1i: (PAL)2Rh110, β 1c: (LLE)2 Rh110, β2c/2i: (KQL)2Rh110, β 5c: (WLA)2Rh110, β 5i: (ANW)2Rh110. The following procedure was followed:
(§3) Cell preparation: Plated 25 μl of Ramos cells (2×10^6/ml in DPBS) into half area plate (PerkinElmer Cat 6005569) to final 5×10^4 cells/well. Added 0.5 μl of 100×4-fold serial diluted test compounds or DMSO to each well. Highest concentration of compound tested was 20 thus compound serial dilution started from […]. Incubated for 30 minutes at 37° C. Then equilibrated at room temperature for 15 minutes. Added 25 μl of 2× reaction mix consisting of 0.025% digitonin, 20 μM of each substrates and 0.5M sucrose in DPBS. Shaked for one minute @ 700 rpm. Incubated for […] at room temperature. Then read the plates with an Envision multilabel plate reader (PerkinElmer) with 500 nm excitation/519 nm emission.

The next test concerns the target T2, β 5i (Homo sapiens, UniProt P20618+P28062).
T2 construct: protease activity associated with the proteasome complex in cultured cells; endogenous in cells; host or cells: Ramos cells
Nature of the test: Cell-Based Proteasome Activity/Selectivity Assay, Ramos cells, substrate (ANW)2Rh110. To be noted: β5i substrate (ANW)2Rh110, read-out: Ic50 ramos: ac-(anw)2-r110.
Text: as §1, §2, §3

For the next test, the target named is T3, β 1c (Homo sapiens, UniProt P28072+Q99436).
T3 construct: protease activity associated with the proteasome complex in cultured cells; endogenous in cells; host or cells: Ramos cells
Nature of the test: Cell-Based Proteasome Activity/Selectivity Assay, Ramos cells, substrate (LLE)2 Rh110. As to conditions: β1c substrate (LLE)2 Rh110.
Text: as §1, §2, §3

A further test concerns the target T4, β 5c (Homo sapiens, UniProt P20618+P28074).
T4 construct: protease activity associated with the proteasome complex in cultured cells; endogenous in cells; host or cells: Ramos cells
Nature of the test: Cell-Based Proteasome Activity/Selectivity Assay, Ramos cells, substrate (WLA)2Rh110. As to conditions: β5c substrate (WLA)2Rh110.
Text: as §1, §2, §3

Another test relates to β2c/2i. Nature of the test: Cell-Based Proteasome Activity/Selectivity Assay, Ramos cells, substrate (KQL)2Rh110. To be noted: β2c/2i substrate (KQL)2Rh110.
Text: as §1, §2, §3

Test [1] has as its target T5, LMP7 (Mus musculus, UniProt O09061+P28063). To be noted: DSS-induced colitis model in mice; cited from earlier work.
Test [2] deals with T5, LMP7. To be noted: MRL/lpr lupus-prone mice; cited from earlier work.
Test [3] addresses T5, LMP7. To be noted: mouse CAIA and CIA arthritis models; cited from earlier work.

In general, EC50 refers to the concentration needed to bring the measured effect to its halfway point. High values mean a need for much substance, low ones an effect from little substance. Broadly, the IC50 is the concentration at which inhibition is half-maximal. `C[C@@H]1NC(=O)CCc2cccc(c2)-c2cccc(c2)CC[C@@H](C(=O)N[C@@H](Cc2ccccc2)C(=O)C(=O)NCc2ccccc2)NC1=O` [Example 1, (9S,12S)-12-Methyl-11,14-dioxo-10,13-diaza-tricyclo[15.3.1.1^2,6]docosa-1(20),2(22),3,5,17(21),18-hexaene-9-carboxylic acid ((S)-1-benzyl-2-benzylcarbamoyl-2-oxo-ethyl)-amide] registered a concentration giving a half-maximal response (EC50) with IP 10 level of 347 nM. Further, the half-inhibitory concentration (IC50) was 1970 nM at β 1i; 19 nM at β 5i; more than 20000 nM against β 1c; 353 nM at β 5c; more than 20000 nM in the test on β2c/2i.

Regarding `COc1ccc(C[C@H](NC(=O)[C@H](C)NC(=O)CN2CCOCC2)C(=O)N[C@@H](Cc2ccccc2)C(=O)[C@@]2(C)CO2)cc1` [PR-957], at LMP7 [1], the “inflammation and tissue destruction” value was “reduced inflammation and tissue destruction”. In addition, at LMP7 [2], the disease progression entry is “prevented disease progression”; the “plasma cells numbers and levels of anti-dsDNA IgG” value is “reduced plasma cells numbers and levels of anti-dsDNA IgG”. Further, the disease score entry at LMP7 [3] was “significantly decrease disease score”.
